Results from patent US10124033B2, “Peptides and methods of use” (BAXALTA INCORPORATED, priority 2014, dated 2018).
Residues, ends and D or L forms follow the SMILES beside them.

Tests used:
Protein S = molecular target: T1, Protein S (Homo sapiens, UniProt P07225); assay: competition (IC50) ELISA with biotinylated tracer peptide JBS0684; format: binding
T1 sequence (P07225 41-676 limits assumed): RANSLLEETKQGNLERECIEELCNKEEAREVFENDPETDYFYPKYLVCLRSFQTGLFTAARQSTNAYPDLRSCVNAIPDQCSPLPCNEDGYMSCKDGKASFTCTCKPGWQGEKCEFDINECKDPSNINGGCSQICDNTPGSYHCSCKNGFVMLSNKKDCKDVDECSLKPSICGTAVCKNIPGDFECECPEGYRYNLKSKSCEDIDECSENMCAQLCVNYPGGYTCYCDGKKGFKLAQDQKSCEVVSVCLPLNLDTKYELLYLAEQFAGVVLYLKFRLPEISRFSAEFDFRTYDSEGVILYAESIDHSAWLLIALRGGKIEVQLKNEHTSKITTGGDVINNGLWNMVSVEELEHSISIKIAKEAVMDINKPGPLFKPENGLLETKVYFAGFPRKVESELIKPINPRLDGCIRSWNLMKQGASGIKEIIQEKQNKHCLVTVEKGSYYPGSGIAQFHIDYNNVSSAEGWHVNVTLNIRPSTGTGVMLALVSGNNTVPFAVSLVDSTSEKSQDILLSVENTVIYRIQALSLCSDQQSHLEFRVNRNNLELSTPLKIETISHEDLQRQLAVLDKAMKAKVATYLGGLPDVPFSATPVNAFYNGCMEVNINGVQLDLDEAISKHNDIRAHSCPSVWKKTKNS
Method in brief: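 Competition ELISA on plate-coated Protein S (3 μg/mL): serially diluted peptides mixed with biotinylated tracer JBS0684 at its binding-ELISA EC90, incubated 1.5 h in HEPES/NaCl/CaCl2/Tween buffer, pH 7.35. Bound tracer detected via HRP-streptavidin and TMB colour; IC50 from competition curve.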

[1] = molecular target: T2, Protein S/APC cofactor activity (Homo sapiens, UniProt P07225); assay: CAT assay: Protein S/APC-dependent thrombin generation in FVIII-inhibited plasma; format: biochemical
T2 construct: host or cells: plasma
T2 sequence (P07225 41-676 limits assumed): T1 sequence (P07225 41-676 limits assumed)
Experimental: Peptides also were tested for improvement of Protein S/APC-dependent thrombin generation in hemophilic plasma using a CAT assay. Protein S enhances the anticoagulation of APC in plasma. The CAT assay quantifies the effect of Protein S on APC-mediated thrombin generation initiated via the extrinsic coagulation pathway (Nicolaes, Blood Coagul. Fibrinolysis, 8:28 (1997)). APC (35 nM) and Protein S (25 nM) was added to Protein 5-depleted plasma, and plasma samples were incubated with high titer heat inactivated anti-human FVIII plasma raised in goat (4490 BU/ml; Baxter BioScience, Vienna, Austria; 50 BU/ml final plasma concentration). Thrombin formation in plasma was followed by calibrated automated thrombography (CAT) in a Fluoroskan Ascent® reader (Thermo Labsystems, Helsinki, Finland) and quantified via the thrombin peak-height. Thrombin generation was determined at high tissue factor (TF) concentration in the absence and in the presence of APC at a concentration that reduces the peak height to ˜20%. The inhibitory effect of peptides described herein on the APC cofactor activity of Protein S (PS) in plasma was measured in FVIII-inhibited pooled normal plasma supplemented with APC. Complete (100%) Protein S/APC inhibition is the height of the thrombin peak without addition of APC. Lack of (0%) PS/APC inhibition correlates to the thrombin peak-height value with a certain amount of APC. Peptides were ranked by their normalized values in comparison to the mean of wild-type controls including SD at two defined peptide concentrations (EC50 and EC90).
Exemplary conditions for the CAT assay are as follows. Protein S-depleted plasma was supplemented with 35 nM APC and […]. Stock APC was diluted with 10 pM TF and 15 μM PL. Lyophilized peptides were dissolved in 100% DMSO to a 5 mM stock concentration and further diluted with HNABSA5-buffer+0.1% Tween80. […] In a 96 well Immulon 2HB (transparent), U-bottom (ThermoElectron) plate was mixed 80 μl plasma (+CTI+Z994-5), 10 μl peptide dilution, and 10 μl APC-TF-PL-MIX or Calibrator. Thrombin generation was initiated by dispensing 20 μL of FluCa reagent containing fluorogenic substrate and HEPES-buffered CaCl2 (100 mM) into each well. Fluorescence intensity was recorded at 37° C. using the Fluoroskan Ascent® reader (filters 390 nm excitation and 460 nm emission). The parameters of the resulting thrombin generation curves were calculated using the Thrombinoscope™ software (Thrombinoscope) and thrombin calibrator to correct for inner filter and substrate consumption effects (Hemker, Pathophysiol Haemost Thromb, 33: 415 (2003)).

[2] = His to Leu substitution at position 3

increase of affinity compared to JBS2512 (Protein S; [2]): 1.6 fold
IC50 (Protein S; competition ELISA, tracer JBS0684, re-synthesized peptides): 2.5 ± 0.3 nM
increase of activity in the CAT-assay compared to JBS2512 [1, 2]: 1.6 fold
PS/APC-dependent thrombin generation in hemophilic plasma ([1]; hemophilic plasma): improved
Compound: CC(=O)N[C@H](C(=O)NCC(=O)N[C@@H](CC(C)C)C(=O)N[C@H](C(=O)N[C@@H](CO)C(=O)N[C@@H](C)C(=O)NCC(=O)N[C@@H](Cc1c[nH]c2ccccc12)C(=O)N[C@@H](Cc1ccc(O)cc1)C(=O)N[C@@H](CC(=O)O)C(=O)N[C@@H](Cc1ccc(O)cc1)C(=O)N[C@@H](CC(N)=O)C(=O)N[C@@H](Cc1ccccc1)C(=O)N[C@@H](CC(=O)O)C(=O)N[C@@H](Cc1c[nH]cn1)C(=O)N[C@@H](Cc1ccc(O)cc1)C(=O)N[C@@H](CCCNC(=N)N)C(=O)N[C@@H](CCC(=O)O)C(=O)N[C@@H](Cc1ccccc1)C(=O)N[C@H](C(N)=O)[C@@H](C)O)C(C)C)[C@@H](C)O [JBS2572] (Ac-TGLVSAGWYDYNFDHYREFT-NH2)
